Measured values taken from patent US9555039B2, “Piperidine derivatives and compositions for the inhibition of nicotinamide phosphoribosyltransferase (NAMPT)” (Forma TM, LLC., priority 2011, dated 2017).

Legend:
A2780 cells = experiment: In-vitro cell proliferation assay (SRB, 72 hours); assay type: cell-based; settings: Homo sapiens, sulforhodamine B (SRB) assay
Outline: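 Background from media-only plate subtracted; inhibition relative to DMSO-treated cells, value derived by interpolation between two concentrations.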

[1] = biological target: T1, Recombinant His-tagged NAMPT (Homo sapiens, UniProt P43490); experiment: Biochemical inhibition assay: NAMPT enzymatic reaction, NMN quantified by mass spectrometry; settings: 33 nM NAMPT, 1 μM NAM, 100 μM PRPP, 2.5 mM ATP, 30 minutes at room temperature; read-out: Biochem IC50
T1 construct: His; host or cells: E. coli
Outline: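 Reaction 30 min at room temperature with 1 μM NAM, 100 μM PRPP, 2.5 mM ATP (final), quenched with formic acid. NMN quantified by RapidFire electrospray MS, normalized to L-cystathionine; IC50 from percent inhibition versus DMSO.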

T1 sequence (P43490 whole entry): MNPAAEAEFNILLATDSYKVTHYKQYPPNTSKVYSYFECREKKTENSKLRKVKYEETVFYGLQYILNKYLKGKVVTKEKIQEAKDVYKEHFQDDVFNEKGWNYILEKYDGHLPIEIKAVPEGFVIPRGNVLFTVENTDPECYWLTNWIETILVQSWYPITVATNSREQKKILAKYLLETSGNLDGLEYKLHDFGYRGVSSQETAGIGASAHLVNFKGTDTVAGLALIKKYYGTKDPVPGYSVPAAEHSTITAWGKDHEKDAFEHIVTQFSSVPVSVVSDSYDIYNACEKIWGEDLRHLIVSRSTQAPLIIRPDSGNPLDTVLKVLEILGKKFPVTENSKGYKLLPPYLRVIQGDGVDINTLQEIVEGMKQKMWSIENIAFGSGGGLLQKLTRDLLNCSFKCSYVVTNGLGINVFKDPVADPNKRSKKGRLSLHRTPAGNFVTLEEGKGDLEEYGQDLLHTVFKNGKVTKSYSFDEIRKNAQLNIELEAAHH

Compound	IC50 (A2780 cells)	IC50 [1]
COc1ccc(OC)c(C(=O)N2CCC(CCCCNC(=O)c3cc4cnccc4[nH]3)CC2)c1 [N-(4-{1-[(2,5-dimethoxyphenyl)carbonyl]piperidin-4-yl}butyl)-1H-pyrrolo[3,2-c]pyridine-2-carboxamide]	2.2 nM	15.5 nM
COc1ccc(OC)c(C(=O)N2CCC(CCCCNC(=O)c3ccc4nccn4c3)CC2)c1 [N-(4-{1-[(2,5-dimethoxyphenyl)carbonyl]piperidin-4-yl}butyl)imidazo[1,2-a]pyridine-6-carboxamide]	1.9 nM	42.9 nM
COc1ccc(OC)c(C(=O)N2CCC(CCCCNC(=O)c3cc4ccncc4s3)CC2)c1 [N-(4-{1-[(2,5-dimethoxyphenyl)carbonyl]piperidin-4-yl}butyl)thieno[2,3-c]pyridine-2-carboxamide]	2.9 nM	5.5 nM
O=C(NCCCCC1CCN(C(=O)c2c(F)cccc2F)CC1)c1cc2cnccc2[nH]1 [N-(4-{1-[(2,6-difluorophenyl)carbonyl]piperidin-4-yl}butyl)-1H-pyrrolo[3,2-c]pyridine-2-carboxamide]	1.4 nM	7.3 nM
O=C(NCCCCC1CCN(C(=O)c2c(F)cccc2F)CC1)c1ccc2nccn2c1 [N-(4-{1-[(2,6-difluorophenyl)carbonyl]piperidin-4-yl}butyl)imidazo[1,2-a]pyridine-6-carboxamide]	1.2 nM	4.7 nM
O=C(NCCCCC1CCN(C(=O)c2c(F)cccc2F)CC1)c1cc2ccncc2s1 [N-(4-{1-[(2,6-difluorophenyl)carbonyl]piperidin-4-yl}butyl)thieno[2,3-c]pyridine-2-carboxamide]	0.8 nM	4.3 nM
COc1cccc(OC)c1C(=O)N1CCC(CCCCNC(=O)c2cc3cnccc3[nH]2)CC1 [N-(4-{1-[(2,6-dimethoxyphenyl)carbonyl]piperidin-4-yl}butyl)-1H-pyrrolo[3,2-c]pyridine-2-carboxamide]	1.4 nM	21.5 nM
COc1cccc(OC)c1C(=O)N1CCC(CCCCNC(=O)c2ccc3nccn3c2)CC1 [N-(4-{1-[(2,6-dimethoxyphenyl)carbonyl]piperidin-4-yl}butyl)imidazo[1,2-a]pyridine-6-carboxamide]	1 nM	28.6 nM
COc1cccc(OC)c1C(=O)N1CCC(CCCCNC(=O)c2cc3ccncc3s2)CC1 [N-(4-{1-[(2,6-dimethoxyphenyl)carbonyl]piperidin-4-yl}butyl)thieno[2,3-c]pyridine-2-carboxamide]	1.2 nM	5.6 nM
CCOc1ccccc1C(=O)N1CCC(CCCCNC(=O)c2cc3cnccc3[nH]2)CC1 [N-(4-{1-[(2-ethoxyphenyl)carbonyl]piperidin-4-yl}butyl)-1H-pyrrolo[3,2-c]pyridine-2-carboxamide]	0.5 nM	30.5 nM
CCOc1ccccc1C(=O)N1CCC(CCCCNC(=O)c2ccc3nccn3c2)CC1 [N-(4-{1-[(2-ethoxyphenyl)carbonyl]piperidin-4-yl}butyl)imidazo[1,2-a]pyridine-6-carboxamide]	0.7 nM	5.2 nM
CCOc1ccccc1C(=O)N1CCC(CCCCNC(=O)c2cc3ccncc3s2)CC1 [N-(4-{1-[(2-ethoxyphenyl)carbonyl]piperidin-4-yl}butyl)thieno[2,3-c]pyridine-2-carboxamide]	0.6 nM	4 nM
CCOc1ncccc1C(=O)N1CCC(CCCCNC(=O)c2cc3cnccc3[nH]2)CC1 [N-(4-{1-[(2-ethoxypyridin-3-yl)carbonyl]piperidin-4-yl}butyl)-1H-pyrrolo[3,2-c]pyridine-2-carboxamide]	0.6 nM	20.6 nM
CCOc1ncccc1C(=O)N1CCC(CCCCNC(=O)c2ccc3nccn3c2)CC1 [N-(4-{1-[(2-ethoxypyridin-3-yl)carbonyl]piperidin-4-yl}butyl)imidazo[1,2-a]pyridine-6-carboxamide]	0.5 nM	9.2 nM
Cc1cccc(C(=O)N2CCC(CCCCNC(=O)c3cc4cnccc4[nH]3)CC2)c1F [N-(4-{1-[(2-fluoro-3-methylphenyl)carbonyl]piperidin-4-yl}butyl)-1H-pyrrolo[3,2-c]pyridine-2-carboxamide]	6.9 nM	47.5 nM
Cc1cccc(C(=O)N2CCC(CCCCNC(=O)c3ccc4nccn4c3)CC2)c1F [N-(4-{1-[(2-fluoro-3-methylphenyl)carbonyl]piperidin-4-yl}butyl)imidazo[1,2-a]pyridine-6-carboxamide]	12.7 nM	22.6 nM
O=C(NCCCCC1CCN(C(=O)c2ccccc2F)CC1)c1cc2cnccc2[nH]1 [N-(4-{1-[(2-fluorophenyl)carbonyl]piperidin-4-yl}butyl)-1H-pyrrolo[3,2-c]pyridine-2-carboxamide]	0.5 nM	7.5 nM
O=C(NCCCCC1CCN(C(=O)c2ccccc2F)CC1)c1ccc2nccn2c1 [N-(4-{1-[(2-fluorophenyl)carbonyl]piperidin-4-yl}butyl)imidazo[1,2-a]pyridine-6-carboxamide]	0.5 nM	3.8 nM

Compound	IC50 (A2780 cells)	IC50 [1]
O=C(NCCCCC1CCN(C(=O)c2ccccc2F)CC1)c1cc2ccncc2s1 [N-(4-{1-[(2-fluorophenyl)carbonyl]piperidin-4-yl}butyl)thieno[2,3-c]pyridine-2-carboxamide]	0.6 nM	8.8 nM
COc1ccccc1C(=O)N1CCC(CCCCNC(=O)c2cc3cnccc3[nH]2)CC1 [N-(4-{1-[(2-methoxyphenyl)carbonyl]piperidin-4-yl}butyl)-1H-pyrrolo[3,2-c]pyridine-2-carboxamide]	1.9 nM	14.4 nM
COc1ccccc1C(=O)N1CCC(CCCCNC(=O)c2cc3ccncc3s2)CC1 [N-(4-{1-[(2-methoxyphenyl)carbonyl]piperidin-4-yl}butyl)thieno[2,3-c]pyridine-2-carboxamide]	3.3 nM	7.7 nM
Cc1nc(C(=O)N2CCC(CCCCNC(=O)c3cc4cnccc4[nH]3)CC2)cs1 [N-(4-{1-[(2-methyl-1,3-thiazol-4-yl)carbonyl]piperidin-4-yl}butyl)-1H-pyrrolo[3,2-c]pyridine-2-carboxamide]	25 nM	69.5 nM
Cc1nc(C(=O)N2CCC(CCCCNC(=O)c3ccc4nccn4c3)CC2)cs1 [N-(4-{1-[(2-methyl-1,3-thiazol-4-yl)carbonyl]piperidin-4-yl}butyl)imidazo[1,2-a]pyridine-6-carboxamide]	61.1 nM	31.4 nM
Cc1nc(C(=O)N2CCC(CCCCNC(=O)c3cc4ccncc4s3)CC2)cs1 [N-(4-{1-[(2-methyl-1,3-thiazol-4-yl)carbonyl]piperidin-4-yl}butyl)thieno[2,3-c]pyridine-2-carboxamide]	100 to 1000 nM	22.4 nM
Cc1ncccc1C(=O)N1CCC(CCCCNC(=O)c2cc3cnccc3[nH]2)CC1 [N-(4-{1-[(2-methylpyridin-3-yl)carbonyl]piperidin-4-yl}butyl)-1H-pyrrolo[3,2-c]pyridine-2-carboxamide]	1.7 nM	21.5 nM
Cc1ncccc1C(=O)N1CCC(CCCCNC(=O)c2ccc3nccn3c2)CC1 [N-(4-{1-[(2-methylpyridin-3-yl)carbonyl]piperidin-4-yl}butyl)imidazo[1,2-a]pyridine-6-carboxamide]	1.8 nM	9.8 nM
O=C(NCCCCC1CCN(C(=O)c2csc(-c3ccccc3)n2)CC1)c1cc2cnccc2[nH]1 [N-(4-{1-[(2-phenyl-1,3-thiazol-4-yl)carbonyl]piperidin-4-yl}butyl)-1H-pyrrolo[3,2-c]pyridine-2-carboxamide]	72.5 nM	110 nM
O=C(NCCCCC1CCN(C(=O)c2csc(-c3ccccc3)n2)CC1)c1cc2ccncc2s1 [N-(4-{1-[(2-phenyl-1,3-thiazol-4-yl)carbonyl]piperidin-4-yl}butyl)thieno[2,3-c]pyridine-2-carboxamide]	76.2 nM	13.1 nM
O=C(NCCCCC1CCN(C(=O)c2ccc3c(c2)OCO3)CC1)c1cc2cnccc2[nH]1 [N-(4-{1-[(2H-1,3-benzodioxol-5-yl)carbonyl]piperidin-4-yl}butyl)-1H-pyrrolo[3,2-c]pyridine-2-carboxamide]	14 nM	78.3 nM
O=C(NCCCCC1CCN(C(=O)c2ccc3c(c2)OCO3)CC1)c1ccc2nccn2c1 [N-(4-{1-[(2H-1,3-benzodioxol-5-yl)carbonyl]piperidin-4-yl}butyl)imidazo[1,2-a]pyridine-6-carboxamide]	29.2 nM	21.3 nM
O=C(NCCCCC1CCN(C(=O)c2ccc3c(c2)OCO3)CC1)c1cc2ccncc2s1 [N-(4-{1-[(2H-1,3-benzodioxol-5-yl)carbonyl]piperidin-4-yl}butyl)thieno[2,3-c]pyridine-2-carboxamide]	100 to 1000 nM	21.1 nM
O=C(NCCCCC1CCN(C(=O)c2ccc(Cl)c(Cl)c2)CC1)c1cc2cnccc2[nH]1 [N-(4-{1-[(3,4-dichlorophenyl)carbonyl]piperidin-4-yl}butyl)-1H-pyrrolo[3,2-c]pyridine-2-carboxamide]	58 nM	93 nM
O=C(NCCCCC1CCN(C(=O)c2ccc(Cl)c(Cl)c2)CC1)c1ccc2nccn2c1 [N-(4-{1-[(3,4-dichlorophenyl)carbonyl]piperidin-4-yl}butyl)imidazo[1,2-a]pyridine-6-carboxamide]	100 to 1000 nM	49 nM
O=C(NCCCCC1CCN(C(=O)c2ccc(Cl)c(Cl)c2)CC1)c1cc2ccncc2s1 [N-(4-{1-[(3,4-dichlorophenyl)carbonyl]piperidin-4-yl}butyl)thieno[2,3-c]pyridine-2-carboxamide]	100 to 1000 nM	34.5 nM
O=C(NCCCCC1CCN(S(=O)(=O)c2ccc(F)c(F)c2)CC1)c1cc2cnccc2[nH]1 [N-(4-{1-[(3,4-difluorobenzene)sulfonyl]piperidin-4-yl}butyl)-1H-pyrrolo[3,2-c]pyridine-2-carboxamide]	22.8 nM	34.6 nM
